This is an account of results in US20140088102A1, “(ALPHA-SUBSTITUTED CYCLOALKYLAMINO AND HETEROCYCLYLAMINO) PYRIMIDINYL AND 1,3,5-TRIAZINYL BENZIMIDAZOLES, PHARMACEUTICAL COMPOSITIONS THEREOF, AND THEIR USE IN TREATING PROLIFERATIVE DISEASES” (MEI PHARMA, INC., priority 2011, published 2014).

What all share (format): biochemical
For one assay, the target named is T1, p110δ (Homo sapiens, UniProt O00329).
T1 construct: purchased Millipore, Billerica, Mass., USA
The experiment in a line: Luciferase-based luminescence assay (Kinase GLO), PI3K delta. Conditions: for IC50: 6.86 nM enzyme, 50 μM PIP2, 25 μM ATP, 2 hours; for α/δ ratio: ratio of IC50 against PI3Kα over IC50 against PI3Kδ. Here is the method:
(§1) PI3K catalyzes the conversion of phosphatidylinositol-4,5-bisphosphate (PIP2) and ATP to phosphatidylinositol-3,4,5-trisphosphate (PIP3) and ADP. PI3K enzymatic activity was determined by measuring the amount of ATP consumed following the kinase reaction using a luciferase-based luminescence assay (Kinase GLO®, Promega Corp., Madison, Wis., USA) in a reaction buffer. The reaction buffer contained 50 mM HEPES, pH 7.5, 3 mM MgCl2, 1 mM EGTA, 100 mM NaCl, 0.03% CHAPS, and 2 mM DTT. Compounds for testing were dissolved and serially diluted in 100% DMSO (total of 10 concentrations), and then diluted 1:25 in the reaction buffer. PI3K enzyme solutions were prepared by diluting PI3K alpha (Invitrogen Corp., Carlsbad, Calif., USA) or PI3K delta (Millipore, Billerica, Mass., USA) in the reaction buffer to 4× the final assay concentration. The final concentrations of enzymes were 1.65 nM and 6.86 nM for PI3K alpha and PI3K delta, respectively. A substrate solution was prepared by mixing PIP2 and ATP in reaction buffer at 2× the final assay concentration. The final concentrations were 50 μM and 25 μM for PIP2 and ATP, respectively. To individual wells of white low volume 384-well assay plates were added 2.5 μl each of the compound and kinase mixtures, followed by shaking. The reactions were started by adding 5 μl of substrate mixture per well and shaking. The assay plates were covered and reactions were allowed to proceed for 1 hour (PI3K alpha) or 2 hours (PI3K delta), after which 10 μl of Kinase GLO® reagent was added. The plates were briefly centrifuged and incubated for 10 minutes, after which luminescence was measured using a FlexStation plate reader (Molecular Devices, Sunnyvale, Calif., USA). IC50 values were determined by curve fitting using Graphpad Prism software (Graphpad Software, La Jolla, Calif., USA).

In a further assay the target is T2, p110α (Homo sapiens, UniProt P42336).
T2 construct: purchased Invitrogen Corp., Carlsbad, Calif., USA
Kind of assay: Luciferase-based luminescence assay (Kinase GLO), PI3K alpha. Conditions: 1.65 nM enzyme, 50 μM PIP2, 25 μM ATP, 1 hour. Here is the method:
as §1

A further assay concerns the target p110β (Homo sapiens, UniProt P42338). Kind of assay: Luciferase-based luminescence assay, p110β.
A further assay addresses mTOR (Homo sapiens, UniProt P42345). The experiment in a line: Luciferase-based luminescence assay, mTOR.
A further assay deals with p110γ (Homo sapiens, UniProt P48736). Kind of assay: Luciferase-based luminescence assay, p110γ.
Sequence of p110γ (P48736 whole entry, species assumed): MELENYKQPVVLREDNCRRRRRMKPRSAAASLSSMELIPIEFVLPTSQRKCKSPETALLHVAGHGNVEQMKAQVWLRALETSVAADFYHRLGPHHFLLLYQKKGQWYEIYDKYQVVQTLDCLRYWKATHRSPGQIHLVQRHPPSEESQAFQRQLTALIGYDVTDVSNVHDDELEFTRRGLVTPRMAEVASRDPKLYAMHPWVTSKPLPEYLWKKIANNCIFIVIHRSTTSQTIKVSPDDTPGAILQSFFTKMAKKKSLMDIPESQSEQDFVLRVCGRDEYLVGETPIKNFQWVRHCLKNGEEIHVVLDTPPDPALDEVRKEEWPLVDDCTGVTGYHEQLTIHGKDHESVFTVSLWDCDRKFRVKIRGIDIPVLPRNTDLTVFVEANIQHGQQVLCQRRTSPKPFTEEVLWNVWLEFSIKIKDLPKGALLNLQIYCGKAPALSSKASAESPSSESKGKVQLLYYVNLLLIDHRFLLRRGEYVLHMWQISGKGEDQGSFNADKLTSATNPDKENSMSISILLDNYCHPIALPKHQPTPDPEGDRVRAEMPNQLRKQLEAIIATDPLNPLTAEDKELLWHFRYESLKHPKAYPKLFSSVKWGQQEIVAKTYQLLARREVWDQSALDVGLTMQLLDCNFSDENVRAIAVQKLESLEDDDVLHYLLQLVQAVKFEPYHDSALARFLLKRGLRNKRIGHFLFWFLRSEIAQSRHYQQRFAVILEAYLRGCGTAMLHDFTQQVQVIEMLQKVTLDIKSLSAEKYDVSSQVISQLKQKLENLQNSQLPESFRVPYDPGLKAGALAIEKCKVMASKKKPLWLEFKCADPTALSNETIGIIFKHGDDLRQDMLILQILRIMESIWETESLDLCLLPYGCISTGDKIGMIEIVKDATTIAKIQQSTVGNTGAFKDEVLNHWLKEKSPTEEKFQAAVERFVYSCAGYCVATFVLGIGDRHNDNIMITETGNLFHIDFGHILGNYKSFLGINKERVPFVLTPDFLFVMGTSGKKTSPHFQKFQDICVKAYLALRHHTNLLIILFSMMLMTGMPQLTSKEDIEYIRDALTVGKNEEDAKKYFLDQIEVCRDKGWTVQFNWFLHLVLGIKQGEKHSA

Sequence of p110β (P42338 whole entry, species assumed): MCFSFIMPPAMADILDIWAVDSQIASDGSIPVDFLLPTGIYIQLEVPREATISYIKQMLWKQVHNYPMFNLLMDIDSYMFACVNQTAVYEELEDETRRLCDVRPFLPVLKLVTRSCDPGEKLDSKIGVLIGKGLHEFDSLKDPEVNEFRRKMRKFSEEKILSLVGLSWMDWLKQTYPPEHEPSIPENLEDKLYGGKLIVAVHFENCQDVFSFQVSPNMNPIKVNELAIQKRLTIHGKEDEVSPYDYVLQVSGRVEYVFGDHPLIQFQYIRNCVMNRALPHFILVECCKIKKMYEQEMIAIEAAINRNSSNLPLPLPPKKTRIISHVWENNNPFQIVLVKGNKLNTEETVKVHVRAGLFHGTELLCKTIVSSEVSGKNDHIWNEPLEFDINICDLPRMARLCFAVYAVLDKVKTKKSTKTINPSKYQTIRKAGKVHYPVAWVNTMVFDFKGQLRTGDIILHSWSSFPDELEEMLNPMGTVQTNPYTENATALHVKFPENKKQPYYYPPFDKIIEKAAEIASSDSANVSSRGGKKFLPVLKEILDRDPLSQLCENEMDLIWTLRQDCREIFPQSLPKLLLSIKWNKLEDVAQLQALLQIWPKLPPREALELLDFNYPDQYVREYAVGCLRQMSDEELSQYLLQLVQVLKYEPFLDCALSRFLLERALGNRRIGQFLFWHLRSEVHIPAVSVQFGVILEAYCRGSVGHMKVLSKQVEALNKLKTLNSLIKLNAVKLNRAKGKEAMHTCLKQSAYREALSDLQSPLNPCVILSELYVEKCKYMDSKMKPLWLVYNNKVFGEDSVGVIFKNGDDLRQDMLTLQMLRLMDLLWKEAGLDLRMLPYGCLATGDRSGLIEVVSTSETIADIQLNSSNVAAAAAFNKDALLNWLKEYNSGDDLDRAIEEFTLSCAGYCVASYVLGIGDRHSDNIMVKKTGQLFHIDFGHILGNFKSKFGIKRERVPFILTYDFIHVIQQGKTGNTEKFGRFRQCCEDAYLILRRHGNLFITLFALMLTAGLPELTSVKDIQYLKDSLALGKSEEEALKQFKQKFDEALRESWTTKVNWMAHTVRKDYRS
Sequence of p110β (P27986 whole entry partner, species assumed): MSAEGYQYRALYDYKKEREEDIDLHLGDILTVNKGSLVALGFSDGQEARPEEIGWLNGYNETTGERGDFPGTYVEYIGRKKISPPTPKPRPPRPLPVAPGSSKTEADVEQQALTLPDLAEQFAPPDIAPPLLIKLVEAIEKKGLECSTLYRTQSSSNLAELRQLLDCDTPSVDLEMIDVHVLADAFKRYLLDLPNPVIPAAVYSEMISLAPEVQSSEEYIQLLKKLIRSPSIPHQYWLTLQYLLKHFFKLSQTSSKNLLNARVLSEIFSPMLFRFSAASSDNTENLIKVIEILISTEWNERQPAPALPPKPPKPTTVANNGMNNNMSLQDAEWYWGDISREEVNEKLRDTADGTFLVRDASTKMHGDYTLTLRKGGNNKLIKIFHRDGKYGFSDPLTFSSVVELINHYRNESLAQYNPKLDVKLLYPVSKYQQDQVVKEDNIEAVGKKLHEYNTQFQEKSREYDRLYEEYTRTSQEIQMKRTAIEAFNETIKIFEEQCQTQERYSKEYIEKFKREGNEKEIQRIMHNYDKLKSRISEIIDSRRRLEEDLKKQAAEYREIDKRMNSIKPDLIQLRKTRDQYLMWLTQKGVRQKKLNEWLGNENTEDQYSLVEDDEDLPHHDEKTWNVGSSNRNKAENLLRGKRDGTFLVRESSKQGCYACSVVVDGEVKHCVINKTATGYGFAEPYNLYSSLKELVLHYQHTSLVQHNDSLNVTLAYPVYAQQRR
T1 sequence (O00329 whole entry): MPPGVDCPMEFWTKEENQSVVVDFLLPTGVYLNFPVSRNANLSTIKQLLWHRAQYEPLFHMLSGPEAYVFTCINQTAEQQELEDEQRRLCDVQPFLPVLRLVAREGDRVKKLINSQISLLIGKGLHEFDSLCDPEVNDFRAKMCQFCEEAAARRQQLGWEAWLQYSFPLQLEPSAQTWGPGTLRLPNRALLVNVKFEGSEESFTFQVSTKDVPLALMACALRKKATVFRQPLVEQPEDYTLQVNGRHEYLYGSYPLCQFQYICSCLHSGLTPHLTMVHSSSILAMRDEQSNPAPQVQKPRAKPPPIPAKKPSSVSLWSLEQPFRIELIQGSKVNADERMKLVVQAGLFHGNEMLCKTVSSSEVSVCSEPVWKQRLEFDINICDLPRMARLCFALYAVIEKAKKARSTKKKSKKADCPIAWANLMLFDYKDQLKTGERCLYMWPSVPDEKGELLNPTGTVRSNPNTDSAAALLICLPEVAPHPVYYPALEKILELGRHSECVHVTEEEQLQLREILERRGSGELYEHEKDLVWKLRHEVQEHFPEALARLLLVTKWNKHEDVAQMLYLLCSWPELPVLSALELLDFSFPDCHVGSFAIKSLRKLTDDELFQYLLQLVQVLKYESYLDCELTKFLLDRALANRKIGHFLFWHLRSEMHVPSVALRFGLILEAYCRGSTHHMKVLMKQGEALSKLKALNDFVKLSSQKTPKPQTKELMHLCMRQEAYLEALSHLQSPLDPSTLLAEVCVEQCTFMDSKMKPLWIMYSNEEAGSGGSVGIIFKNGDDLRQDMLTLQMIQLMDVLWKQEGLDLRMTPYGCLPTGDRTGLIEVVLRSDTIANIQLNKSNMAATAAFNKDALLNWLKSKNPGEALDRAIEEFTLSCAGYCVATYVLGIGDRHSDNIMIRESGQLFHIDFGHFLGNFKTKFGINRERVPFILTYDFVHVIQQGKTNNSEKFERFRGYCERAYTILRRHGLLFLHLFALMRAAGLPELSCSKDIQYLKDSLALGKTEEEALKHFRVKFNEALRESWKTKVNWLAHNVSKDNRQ
T1 sequence (P27986 whole entry partner): as the sequence (P27986 whole entry partner, species assumed) above
T2 sequence (P42336 whole entry): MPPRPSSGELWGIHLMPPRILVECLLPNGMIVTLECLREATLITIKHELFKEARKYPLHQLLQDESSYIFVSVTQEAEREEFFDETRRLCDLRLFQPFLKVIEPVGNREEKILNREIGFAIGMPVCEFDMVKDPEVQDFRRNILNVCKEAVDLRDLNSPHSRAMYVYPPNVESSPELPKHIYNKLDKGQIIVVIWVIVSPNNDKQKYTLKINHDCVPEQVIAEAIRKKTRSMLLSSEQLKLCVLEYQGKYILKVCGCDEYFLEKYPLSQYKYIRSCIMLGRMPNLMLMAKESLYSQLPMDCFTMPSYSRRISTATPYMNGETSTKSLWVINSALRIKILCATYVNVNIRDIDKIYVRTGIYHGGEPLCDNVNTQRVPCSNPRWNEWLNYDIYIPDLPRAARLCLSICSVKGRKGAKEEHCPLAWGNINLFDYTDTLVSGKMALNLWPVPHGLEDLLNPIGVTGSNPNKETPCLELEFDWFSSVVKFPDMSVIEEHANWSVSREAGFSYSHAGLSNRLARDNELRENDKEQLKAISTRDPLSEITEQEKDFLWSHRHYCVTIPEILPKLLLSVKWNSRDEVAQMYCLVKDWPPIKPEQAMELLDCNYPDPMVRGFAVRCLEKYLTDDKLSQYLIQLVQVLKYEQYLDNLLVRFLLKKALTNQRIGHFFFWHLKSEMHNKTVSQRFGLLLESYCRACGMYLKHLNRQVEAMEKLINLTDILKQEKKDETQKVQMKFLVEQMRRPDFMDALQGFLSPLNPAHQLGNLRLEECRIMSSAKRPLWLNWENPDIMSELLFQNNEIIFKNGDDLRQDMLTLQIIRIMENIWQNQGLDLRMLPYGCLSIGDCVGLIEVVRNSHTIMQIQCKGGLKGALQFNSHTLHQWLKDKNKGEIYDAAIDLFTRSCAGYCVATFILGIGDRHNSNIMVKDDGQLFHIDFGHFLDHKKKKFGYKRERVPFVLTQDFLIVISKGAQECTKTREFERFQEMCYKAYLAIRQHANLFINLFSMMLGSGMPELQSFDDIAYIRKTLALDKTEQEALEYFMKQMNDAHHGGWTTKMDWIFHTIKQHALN
T2 sequence (P27986 whole entry partner): as the sequence (P27986 whole entry partner, species assumed) above

With `FC(F)c1nc2ccccc2n1-c1nc(NC2(c3ccccc3)CC2)nc(N2CCOCC2)n1` [Compound A1, 4-(2-(difluoromethyl)-1H-benzo[d]imidazol-1-yl)-6-morpholino-N-(1-phenylcyclopropyl)-1,3,5-triazin-2-amine], on p110δ, the half-inhibitory concentration (IC50) was no more than 100 nM and the α/δ ratio entry is recorded as “B′ (B′ represents a ratio of no less than 4 but no greater than 8)”. On p110α, the IC50 lay within 200 to 500 nM.

For `Cc1ccccc1CC1(Nc2nc(N3CCOCC3)nc(-n3c(C(F)F)nc4ccccc43)n2)CC1` [Compound A8, 4-(2-(difluoromethyl)-1H-benzo[d]imidazol-1-yl)-N-(1-(2-methylbenzyl)cyclopropyl)-6-morpholino-1,3,5-triazin-2-amine], the IC50 against p110β was greater than 500 nM; on p110δ it was 100 to 200 nM; against p110α, greater than 500 nM; at mTOR it was greater than 500 nM; on p110γ it was greater than 500 nM. On p110δ, the α/δ ratio result is “B′ (B′ represents a ratio of no less than 4 but no greater than 8)”.

Regarding `FC(F)c1nc2ccccc2n1-c1nc(NC2(Cc3ccccc3)CC2)nc(N2CCOCC2)n1` [Compound A5, N-(1-benzylcyclopropyl)-4-(2-(difluoromethyl)-1H-benzo[d]imidazol-1-yl)-6-morpholino-1,3,5-triazin-2-amine], the IC50 against p110β was greater than 500 nM; on p110δ it was no more than 100 nM; on p110α, greater than 500 nM; against mTOR, greater than 500 nM; at p110γ, greater than 500 nM. The α/δ ratio result at p110δ is “A′ (A′ represents a ratio of greater than 8)”.

`FC(F)c1nc2ccccc2n1-c1nc(NC2(Cc3ccc(Br)cc3)CCCCC2)nc(N2CCOCC2)n1` [Compound A6, N-(1-(4-bromobenzyl)cyclohexyl)-4-(2-(difluoromethyl)-1H-benzo[d]imidazol-1-yl)-6-morpholino-1,3,5-triazin-2-amine]: the IC50 on p110β, at p110δ, on p110α, against mTOR and at p110γ was greater than 500 nM each time. In addition, at p110δ, the α/δ ratio result was “B′ (B′ represents a ratio of no less than 4 but no greater than 8)”.

`FC(F)c1nc2ccccc2n1-c1nc(NC2(c3ccccc3)CCCC2)nc(N2CCOCC2)n1` [Compound A3, 4-(2-(difluoromethyl)-1H-benzo[d]imidazol-1-yl)-6-morpholino-N-(1-phenylcyclopentyl)-1,3,5-triazin-2-amine]: at p110δ, the IC50 is greater than 500 nM and the α/δ ratio entry is reported as “A′ (A′ represents a ratio of greater than 8)”. At p110α, this compound yielded an IC50 greater than 500 nM.

As for `FC(F)c1nc2ccccc2n1-c1nc(NC2(Cc3ccccc3)CCC2)nc(N2CCOCC2)n1` [Compound A11, 4-(2-(difluoromethyl)-1H-benzo[d]imidazol-1-yl)-N-(1-benzylcyclobutyl)-6-morpholino-1,3,5-triazin-2-amine], the IC50 against p110β is no more than 100 nM; against p110δ it was no more than 100 nM; against p110α, greater than 500 nM; against mTOR, greater than 500 nM; on p110γ, 200 to 500 nM. Besides, the α/δ ratio entry on p110δ is given as “A′ (A′ represents a ratio of greater than 8)”.

For `FC(F)c1nc2ccccc2n1-c1nc(NCc2ccccc2)nc(N2CCOCC2)n1` [Ref. 1, N-benzyl-4-(2-(difluoromethyl)-1H-benzo[d]imidazol-1-yl)-6-morpholino-1,3,5-triazin-2-amine, reference compound], on p110δ, the IC50 was 100 to 200 nM and the α/δ ratio result is on record as “D′ (D′ represents a ratio of no greater than 2)”. The IC50 against p110α was in the range of 100 to 200 nM.

`FC(F)c1nc2ccccc2n1-c1nc(NC2(Cc3ccccc3Cl)CC2)nc(N2CCOCC2)n1` [Compound A10, N-(1-(2-chlorobenzyl)cyclopropyl)-4-(2-(difluoromethyl)-1H-benzo[d]imidazol-1-yl)-6-morpholino-1,3,5-triazin-2-amine]: the IC50 at p110β was greater than 500 nM; at p110δ it was 200 to 500 nM; at p110α, greater than 500 nM; at mTOR, greater than 500 nM; at p110γ, greater than 500 nM. Besides, the α/δ ratio entry at p110δ is “A′ (A′ represents a ratio of greater than 8)”.

For `FC(F)c1nc2ccccc2n1-c1nc(NC2(c3ccccc3)CCCCC2)nc(N2CCOCC2)n1` [Compound A4, 4-(2-(difluoromethyl)-1H-benzo[d]imidazol-1-yl)-6-morpholino-N-(1-phenylcyclohexyl)-1,3,5-triazin-2-amine], on p110δ, the IC50 was 200 to 500 nM and the α/δ ratio result is “A′ (A′ represents a ratio of greater than 8)”. The compound also had an IC50 against p110α greater than 500 nM.

As for `FC(F)c1nc2ccccc2n1-c1nc(NC2(Cc3ccccc3)CCCC2)nc(N2CCOCC2)n1` [Compound A7, N-(1-benzylcyclopentyl)-4-(2-(difluoromethyl)-1H-benzo[d]imidazol-1-yl)-6-morpholino-1,3,5-triazin-2-amine], the IC50 on p110β was 100 to 200 nM; against p110δ, no more than 100 nM; on p110α, greater than 500 nM; on mTOR, greater than 500 nM; against p110γ, 200 to 500 nM. The α/δ ratio result at p110δ was “A′ (A′ represents a ratio of greater than 8)”.
